# Target: human RIP1 kinase domain (2-375) (Homo sapiens (Human), UniProt Q13546)
# Test: biochemical
# Assay type: biochemical
# Settings: Table 1; apparent Ki (Morrison tight-binding fit); 50 nM RIP1 kinase domain, 50 uM ATP, 2 hours incubation; read-out: RIP1 Ki
# Method in brief: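 Ki^app comes from Morrison tight-binding fits of fractional activity versus compound concentration. Activity was read as ADP production, via tracer displacement lowering fluorescence polarization (633 nm laser). Conditions: 2 h, 50 nM insect-cell-expressed enzyme, 50 uM ATP, 30 mM MgCl2, 1 mM DTT, 0.5% DMSO, pH 7.5 Hepes.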
# Chain of human RIP1 kinase domain (2-375) (Q13546 2-375): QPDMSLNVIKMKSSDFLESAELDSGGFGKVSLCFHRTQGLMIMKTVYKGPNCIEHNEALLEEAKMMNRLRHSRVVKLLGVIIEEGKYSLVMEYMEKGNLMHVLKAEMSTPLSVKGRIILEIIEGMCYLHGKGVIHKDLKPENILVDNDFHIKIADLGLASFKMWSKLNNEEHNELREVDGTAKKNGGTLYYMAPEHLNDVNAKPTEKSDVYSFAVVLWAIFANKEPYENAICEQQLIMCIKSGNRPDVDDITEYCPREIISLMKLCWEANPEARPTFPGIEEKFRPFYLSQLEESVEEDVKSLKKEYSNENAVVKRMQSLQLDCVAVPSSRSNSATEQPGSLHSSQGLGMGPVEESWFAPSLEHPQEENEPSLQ
row,Compound,Ki [nM]
1,"CC1Cc2c(C(=O)N[C@H]3COc4[nH]ncc4NC3=O)n[nH]c2CO1 (stereo partly drawn) [Example 25, 5-methyl-N—((S)-5-oxo-4,5,6,7-tetrahydro-1H-pyrazolo[3,4-b][1,4]oxazepin-6-yl)-1,4,5,7-tetrahydropyrano[3,4-c]pyrazole-3-carboxamide]",> 10000

# Same assay, conditions: Table 5; apparent Ki (Morrison tight-binding fit); 50 nM RIP1 kinase domain, 50 uM ATP, 2 hours incubation; read-out: Ki
row,Compound,Ki [nM]
1,"COCCNCc1cc2n(n1)CCC(NC(=O)c1ncn(Cc3ccccc3)n1)C(=O)N2C (single isomer, unassigned) [Example 780, 1-benzyl-N-(2-(((2-methoxyethyl)amino)methyl)-4-methyl-5-oxo-5,6,7,8-tetrahydro-4H-pyrazolo[1,5-a][1,3]diazepin-6-yl)-1H-1,2,4-triazole-3-carboxamide]",598
2,"CN1C(=O)[C@@H](NC(=O)c2nc3n(n2)[C@H](c2ccccc2)CCC3)COc2ccccc21 [Example 735, (S)—N—((S)-5-methyl-4-oxo-2,3,4,5-tetrahydrobenzo[b][1,4]oxazepin-3-yl)-5-phenyl-5,6,7,8-tetrahydro-[1,2,4]triazolo[1,5-a]pyridine-2-carboxamide]",13
3,"CN1C(=O)[C@@H](NC(=O)c2ncn(Cc3ccccc3)n2)CCn2nc(CCN3CC4CC3CO4)cc21 (stereo partly drawn) [Example 761, 1-benzyl-N-[(6S)-4-methyl-2-[2-(2-oxa-5-azabicyclo[2.2.1]heptan-5-yl)ethyl]-5-oxo-7,8-dihydro-6H-pyrazolo[1,5-a][1,3]diazepin-6-yl]-1,2,4-triazole-3-carboxamide]",159

# Same assay, conditions: human RIP1 kinase domain (2-375), 50 uM ATP, 2 hours incubation, Transcreener ADP assay; read-out: RIP1 Ki
row,Compound,Ki [nM]
1,"CN1C(=O)C(NC(=O)c2nnc(Cc3ccc(F)cc3)[nH]2)CCCn2nccc21 (stereo not shown) [Example 96, 5-(4-fluorobenzyl)-N-(4-methyl-5-oxo-4,5,6,7,8,9-hexahydropyrazolo[1,5-a][1,3]diazocin-6-yl)-4H-1,2,4-triazole-3-carboxamide]",801
2,"Cc1cc2n(n1)CC[C@H](NC(=O)c1ncn(Cc3ccc(F)c(F)c3)n1)C(=O)N2C [Example 220, (S)-1-(3,4-difluorobenzyl)-N-(2,4-dimethyl-5-oxo-5,6,7,8-tetrahydro-4H-pyrazolo[1,5-a][1,3]diazepin-6-yl)-1H-1,2,4-triazole-3-carboxamide]",47.1
3,"CN1C(=O)C(NC(=O)c2ccn(Cc3ccc(F)c(F)c3)n2)CCn2ccnc21 (stereo not shown) [Example 177, 1-(3,4-difluorobenzyl)-N-(9-methyl-8-oxo-6,7,8,9-tetrahydro-5H-imidazo[1,2-a][1,3]diazepin-7-yl)-1H-pyrazole-3-carboxamide]",1900
4,"Cc1ccc2snc(C(=O)N[C@H]3COc4ccccc4N(C)C3=O)c2c1 [Example 90, (S)-5-methyl-N-(5-methyl-4-oxo-2,3,4,5-tetrahydrobenzo[b][1,4]oxazepin-3-yl)benzo[d]isothiazole-3-carboxamide]",18.6
5,"Cc1cc2n(n1)CC[C@H](NC(=O)c1ncn(Cc3ccc(Cl)cc3)n1)C(=O)N2C [Example 170, (S)-1-(4-chlorobenzyl)-N-(2,4-dimethyl-5-oxo-5,6,7,8-tetrahydro-4H-pyrazolo[1,5-a][1,3]diazepin-6-yl)-1H-1,2,4-triazole-3-carboxamide]",13.2
6,"(S)—N-(5-methyl-4-oxo-2,3,4,5-tetrahydrobenzo[b][1,4]oxazepin-3-yl)-6-(trifluoromethyl)-[1,2,4]triazolo[4,3-a]pyridine-3-carboxamide [Example 113]",1700
7,"CC(C)n1ncc2c1OC[C@H](NC(=O)c1ncn(Cc3ccccc3)n1)C(=O)N2 [Example 203, (S)-1-benzyl-N-(1-isopropyl-5-oxo-4,5,6,7-tetrahydro-1H-pyrazolo[3,4-b][1,4]oxazepin-6-yl)-1H-1,2,4-triazole-3-carboxamide]",912

# Same assay, conditions: human RIP1 kinase domain (2-375), Transcreener ADP assay, 50 uM ATP, 2 hours incubation; read-out: RIP1 Ki
row,Compound,Ki [nM]
1,"CN1C(=O)[C@@H](NC(=O)c2ncn(Cc3ccc(F)cc3F)n2)CCn2nc([C@@H]3CC3(F)F)cc21 [Example 322, 1-(2,4-difluorobenzyl)-N—((S)-2-((S)-2,2-difluorocyclopropyl)-4-methyl-5-oxo-5,6,7,8-tetrahydro-4H-pyrazolo[1,5-a][1,3]diazepin-6-yl)-1H-1,2,4-triazole-3-carboxamide]",28.6
2,"Cc1cc2n(n1)CCC(NC(=O)c1ncn(CC3CCCC3)n1)C(=O)N2C (stereo not shown) [Example 251, 1-(cyclopentylmethyl)-N-(2,4-dimethyl-5-oxo-5,6,7,8-tetrahydro-4H-pyrazolo[1,5-a][1,3]diazepin-6-yl)-1H-1,2,4-triazole-3-carboxamide]",136
3,"CN1C(=O)[C@H](NC(=O)c2ncn(Cc3ccc(F)c(F)c3)n2)CCn2nc([C@H]3CC3(F)F)cc21 [Example 314, 1-(3,4-difluorobenzyl)-N—((R)-2-((R)-2,2-difluorocyclopropyl)-4-methyl-5-oxo-5,6,7,8-tetrahydro-4H-pyrazolo[1,5-a][1,3]diazepin-6-yl)-1H-1,2,4-triazole-3-carboxamide]",43.5
4,"Cc1cc(Cn2cnc(C(=O)NC3CCn4nc(C5CC5)cc4N(C)C3=O)n2)ccn1 (stereo not shown) [Example 242, N-(2-cyclopropyl-4-methyl-5-oxo-5,6,7,8-tetrahydro-4H-pyrazolo[1,5-a][1,3]diazepin-6-yl)-1-((2-methylpyridin-4-yl)methyl)-1H-1,2,4-triazole-3-carboxamide]",5700
5,"CN1C(=O)[C@@H](NC(=O)c2cc3c(cn2)COC32CCOC2)COc2ccccc21 (stereo partly drawn) [Example 232, N—((S)-5-methyl-4-oxo-2,3,4,5-tetrahydrobenzo[b][1,4]oxazepin-3-yl)-4,5-dihydro-2H,3′ H-spiro[furan-3,1′-furo[3,4-c]pyridine]-6′-carboxamide]",88.7

# Same assay, conditions: tight-binding apparent inhibition constant; human RIP1 kinase domain (2-375) 50 nM, 50 uM ATP, 2 hours; read-out: Ki
row,Compound,Ki [nM]
1,"Cc1cc2n(n1)CC[C@H](NC(=O)c1ncn(Cc3ncccc3C)n1)C(=O)N2C [Example 644, 1-[(3-methyl-2-pyridyl)methyl]-N-(6S)-2,4-dimethyl-5-oxo-7,8-dihydro-6H-pyrazolo[1,5-a][1,3]diazepin-6-yl-1,2,4-triazole-3-carboxamide]",310
2,"CN1C(=O)[C@@H](NC(=O)c2ncc3c(n2)C2(CCCC2)OC3)CCn2nccc21 [Example 565, N-[(6S)-4-methyl-5-oxo-7,8-dihydro-6H-pyrazolo[1,5-a][1,3]diazepin-6-yl]spiro[5H-furo [3,4-d]pyrimidine-7,1′-cyclopentane]-2-carboxamide]",70
3,Cc1ccccc1Cn1cnc(C(=O)N[C@H]2CCn3nc(C4CC4)cc3N(C)C2=O)n1 [Example 604],21
4,"CN1C(=O)[C@@H](NC(=O)c2nc3n(n2)[C@H](C(F)(F)F)CC3)COc2ccccc21 [Example 350, (5S)—N-[(3S)-5-methyl-4-oxo-2,3-dihydro-1,5-benzoxazepin-3-yl]-5-(trifluoromethyl)-6,7-dihydro-5H-pyrrolo[1,2-b][1,2,4]triazole-2-carboxamide]",19.4
5,"C=C(C)c1cc2n(n1)CCC(NC(=O)c1ncn(Cc3ccccc3)n1)C(=O)N2C (racemic) [Example 365, 1-benzyl-N-(2-isopropenyl-4-methyl-5-oxo-7,8-dihydro-6H-pyrazolo[1,5-a][1,3]diazepin-6-yl)-1,2,4-triazole-3-carboxamide]",31.1
6,CN1C(=O)[C@@H](NC(=O)c2ncn(Cc3ccc(Cl)cc3)n2)CCn2nc(C(F)(F)F)cc21 [Example 532],24
7,"CC(C)c1cccc2nc(C(=O)N[C@H]3COc4cc(F)cc(F)c4NC3=O)nn12 [Example 424, (S)—N-(6,8-difluoro-4-oxo-2,3,4,5-tetrahydrobenzo[b][1,4]oxazepin-3-yl)-5-isopropyl-[1,2,4]triazolo[1,5-a]pyridine-2-carboxamide]",3
8,"CN1C(=O)[C@@H](NC(=O)c2nc3n(n2)C(C2CCCCC2)CCC3)COc2ccccc21 (stereo partly drawn) [Example 377, 5-cyclohexyl-N—((S)-5-methyl-4-oxo-2,3,4,5-tetrahydrobenzo[b][1,4]oxazepin-3-yl)-5,6,7,8-tetrahydro-[1,2,4]triazolo[1,5-a]pyridine-2-carboxamide]",10.8
9,"O=C(N[C@H]1CCc2cc(F)cc(F)c2NC1=O)c1nc2n(n1)CC[C@H]2c1ccccc1 (single isomer, unassigned) [Example 628]",5
10,"CCC(C)(O)c1ccnc(C(=O)N[C@H]2COc3ccccc3N(C)C2=O)n1 (stereo partly drawn) [Example 549, 4-(1-hydroxy-1-methyl-propyl)-N-[(3S)-5-methyl-4-oxo-2,3-dihydro-1,5-benzoxazepin-3-yl]pyrimidine-2-carboxamide]",3700
11,"CC(C)n1ncc2cnc(C(=O)N[C@H]3CCc4cc(F)cc(F)c4NC3=O)nc21 [Example 607, 1-isopropyl-N-[(3S)-7,9-difluoro-2-oxo-1,3,4,5-tetrahydro-1-benzazepin-3-yl]pyrazolo[3,4-d]pyrimidine-6-carboxamide]",28
12,Cc1cc2n(n1)CC[C@H](NC(=O)c1ncn(Cc3ccccc3)n1)C(=O)N2 [Example 586],63
13,CN1C(=O)[C@@H](NC(=O)c2ncn(Cc3ccccc3Cl)n2)CCn2nc(C3CC3)cc21 [Example 522],3.5
14,"CN1C(=O)[C@@H](NC(=O)c2nc3n(n2)CCOC3c2ccccc2)COc2ccccc21 (stereo partly drawn) [Example 515, 8-phenyl-N-[(3S)-5-methyl-4-oxo-2,3-dihydro-1,5-benzoxazepin-3-yl]-6,8-dihydro-5H-[1,2,4]triazolo[5,1-c][1,4]oxazine-2-carboxamide]",29
15,"CN1C(=O)[C@@H](NC(=O)c2nc3n(n2)[C@@H](c2ccccc2)CC3)COc2ccccc21 [Example 623, (5R)-5-phenyl-N-[(3S)-5-methyl-4-oxo-2,3-dihydro-1,5-benzoxazepin-3-yl]-6,7-dihydro-5H-pyrrolo[1,2-b][1,2,4]triazole-2-carboxamide]",3.4
